For experiment [1], the target named is T1, α1a-AR (Homo sapiens, UniProt P35348).
T1 construct: expressed in transfected cells; host or cells: COS-7
T1 sequence (P35348 1-466): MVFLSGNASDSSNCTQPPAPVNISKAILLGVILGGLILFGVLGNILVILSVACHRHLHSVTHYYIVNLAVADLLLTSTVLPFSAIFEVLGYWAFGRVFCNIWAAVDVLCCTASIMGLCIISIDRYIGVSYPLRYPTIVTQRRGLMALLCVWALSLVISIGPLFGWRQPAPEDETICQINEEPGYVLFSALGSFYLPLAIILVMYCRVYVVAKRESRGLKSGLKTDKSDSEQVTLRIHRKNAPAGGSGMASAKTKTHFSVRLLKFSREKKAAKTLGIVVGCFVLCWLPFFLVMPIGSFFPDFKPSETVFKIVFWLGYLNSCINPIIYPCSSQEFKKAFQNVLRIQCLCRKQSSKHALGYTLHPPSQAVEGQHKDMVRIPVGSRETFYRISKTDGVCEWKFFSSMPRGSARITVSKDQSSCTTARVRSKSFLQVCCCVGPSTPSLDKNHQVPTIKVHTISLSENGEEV
Briefly: α1-Adrenergic receptor radio-ligand (125I-HEAT) binding assay, α1a subtype. To be noted: COS-7 cell membranes, 125I-HEAT. The procedure:
(§1) α1-Adrenergic Receptor Binding Assay: Preparation of COS Cell Membranes
(§2) Membranes were prepared from COS-7 cells that had been transfected with one of the three α1-AR subtypes by the following method. COS cells from ten 100 mm tissue culture plates were scraped into 5 mL TE (50 mM Tris-HCl, 5 mM EDTA, pH 7.4). The cell suspension was disrupted with a Brinkman Polytron, setting 8, for 10 sec. The disrupted cells were centrifuged at 1000×g for 10 min at 4° C. Supernatants were centrifuged at 34,500×g for 20 min at 4° C. The membrane pellets were suspended in 2 mL TNE (50 mM Tris-HCl, 5 mM EDTA, 150 mM NaCl, pH7.4). An aliquot of the membrane suspension was stored at −70° C. until use. The protein concentration was determined using the BioRad DC protein assay kit following membrane solubilization with Triton X-100.
(§3) Radio-Ligand Binding Assay
(§4) Triplicate determinations of radio-ligand binding in the presence of increasing: concentrations of testing compound were made. The reagents were added to 96-well polypropylene plate wells using the Biomek 1000 robot (Beckman Instruments). Each assay well contained 140 μl TNE, 25 μL ^125I-HEAT (specific activity 2200 Ci/mmol, Dupont-NEN, 50 pM final), 10 μL testing compound dissolved in DMSO (1 pM to 10 μM in half-log increments, final), and 25 μL appropriate α1-AR membrane subtype suspension in TNE (0.5 ng/μL for the α1a and α1b subtypes and 13 ng/μL for the α1d subtype). The plate was incubated at rt for 1 hr. The contents of the wells were filtered through a GF/C membrane Unifilter plate (Packard Instruments) using the Packard Filtermate cell harvester. The filter plates were dried in a vacuum oven for 30 min at 40° C. 25 μL Microscint 20 liquid scintillation fluid (Packard Instuments) was added to each well. The radioactive content was analyzed in the TopCount microplate scintillation counter (Packard Instruments).

For experiment [2], the target named is T2, α1d-AR (Homo sapiens, UniProt P25100).
T2 construct: expressed in transfected cells; host or cells: COS-7
T2 sequence (P25100 1-572): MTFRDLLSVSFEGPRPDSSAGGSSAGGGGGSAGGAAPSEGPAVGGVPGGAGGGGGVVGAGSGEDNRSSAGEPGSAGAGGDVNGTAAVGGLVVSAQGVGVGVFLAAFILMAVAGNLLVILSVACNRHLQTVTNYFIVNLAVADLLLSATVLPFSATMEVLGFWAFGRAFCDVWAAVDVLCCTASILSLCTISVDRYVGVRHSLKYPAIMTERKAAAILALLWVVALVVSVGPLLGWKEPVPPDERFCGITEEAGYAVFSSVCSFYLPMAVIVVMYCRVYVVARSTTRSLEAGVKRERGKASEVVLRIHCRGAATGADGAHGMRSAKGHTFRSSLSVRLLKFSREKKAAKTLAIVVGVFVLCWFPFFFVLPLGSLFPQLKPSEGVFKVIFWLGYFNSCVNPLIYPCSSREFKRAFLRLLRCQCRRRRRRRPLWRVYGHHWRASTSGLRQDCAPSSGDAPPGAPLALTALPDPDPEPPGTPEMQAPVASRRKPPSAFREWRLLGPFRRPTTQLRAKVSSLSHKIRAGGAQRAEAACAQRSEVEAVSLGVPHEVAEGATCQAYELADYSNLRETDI
Briefly: α1-Adrenergic receptor radio-ligand (125I-HEAT) binding assay, α1d subtype. Conditions: COS-7 cell membranes, 125I-HEAT; read-out: Receptor Binding, Ki α1d-AR. The procedure:
as §1, §2, §3
as §4, with “Each assay well contained 140 μl TNE, 25 μL ^125I-HEAT (specific activity 2200 Ci/mmol, Dupont-NEN, 50 pM final), 10 μL testing compound dissolved in DMSO (1 pM to 10 μM in half-log increments, final), and 25 μL appropriate α1-AR membrane subtype suspension in TNE (0.5 ng/μL for the α1a and α1b subtypes and 13 ng/μL for the α1d subtype).” left out

Experiment [3] has as its target T3, α1b-AR (Homo sapiens, UniProt P35368).
T3 sequence (P35368 1-520): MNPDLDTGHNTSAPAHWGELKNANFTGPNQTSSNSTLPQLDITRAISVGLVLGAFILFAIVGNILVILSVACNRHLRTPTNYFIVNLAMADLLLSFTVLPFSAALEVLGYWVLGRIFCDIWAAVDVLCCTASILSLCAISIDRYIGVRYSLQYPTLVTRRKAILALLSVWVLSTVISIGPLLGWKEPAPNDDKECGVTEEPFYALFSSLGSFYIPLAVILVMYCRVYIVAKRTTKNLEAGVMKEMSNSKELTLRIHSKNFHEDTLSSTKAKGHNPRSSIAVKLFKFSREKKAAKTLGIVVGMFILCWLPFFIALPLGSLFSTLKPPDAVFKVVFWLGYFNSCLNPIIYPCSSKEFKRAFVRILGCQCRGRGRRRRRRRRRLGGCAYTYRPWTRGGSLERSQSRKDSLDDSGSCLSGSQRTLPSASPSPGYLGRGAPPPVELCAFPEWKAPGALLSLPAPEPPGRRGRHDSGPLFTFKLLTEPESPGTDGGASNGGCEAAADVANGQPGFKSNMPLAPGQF
Briefly: α1-Adrenergic receptor radio-ligand (125I-HEAT) binding assay, α1b subtype. To be noted: Receptor Binding, Ki α1b-AR, COS-7 cell membranes, 125I-HEAT.

By Ki is commonly meant the equilibrium dissociation constant of an inhibitor or competing ligand from its target.

Take `CC(C)Oc1ccccc1N1CCN([C@H]2CC[C@H](NS(=O)(=O)c3ccc(C(F)(F)F)cc3)CC2)CC1` [Cpd 37, N-trans-{4-[4-(2-Isopropoxy-phenyl)-piperazin-1-yl]-cyclohexyl}-4-trifluoromethyl-benzenesulfonamide]: the Ki in experiment [1] was found to be 67 nM; in experiment [2] it was 65 nM; in experiment [3] it was 931 nM.
On the same counts, the results for `CC(C)Oc1ccccc1N1CCN([C@H]2CC[C@@H](NS(=O)(=O)c3cccc(F)c3)CC2)CC1` [Cpd 22, 3-Fluoro-N-cis-{4-[4-(2-isopropoxy-phenyl)-piperazin-1-yl]-cyclohexyl}-benzenesulfonamide] are 3.5 nM, 3.3 nM and 108 nM.
On the same counts, the results for `CC(C)Oc1ccccc1N1CCN([C@H]2CC[C@@H](NS(=O)(=O)c3ccc(OC(F)(F)F)cc3)CC2)CC1` [Cpd 17, N-cis-{4-[4-(2-Isopropoxy-phenyl)-piperazin-1-yl]-cyclohexyl}-4-trifluoromethoxy-benzenesulfonamide] are 17.4 nM, 2.1 nM and 174 nM.
On the same counts, the results for `CC(C)Oc1ccccc1N1CCN([C@H]2CC[C@H](NS(=O)(=O)c3cccc4cccnc34)CC2)CC1` [Cpd 63, Quinoline-8-sulfonic acid N-trans-{4-[4-(2-isopropoxy-phenyl)-piperazin-1-yl]-cyclohexyl}-amide] are 0.5 nM, 22.1 nM and 77.6 nM.
In the case of `COc1ccc(S(=O)(=O)N[C@H]2CC[C@@H](N3CCN(c4ccc(F)cc4OC(C)C)CC3)CC2)cc1OC` [Cpd 71, N-cis-{4-[4-(4-Fluoro-2-isopropoxy-phenyl)-piperazin-1-yl]-cyclohexyl}-3,4-dimethoxy-benzenesulfonamide], the Ki in experiment [1] was determined as 14.9 nM; in experiment [2], 5.9 nM; in experiment [3], 711 nM.
On the same counts, the results for `COc1ccncc1S(=O)(=O)N[C@H]1CC[C@H](N2CCN(c3ccccc3OC(C)C)CC2)CC1` [Cpd 65, 4-Methoxy-pyridine-3-sulfonic acid N-trans-{4-[4-(2-isopropoxy-phenyl)-piperazin-1-yl]-cyclohexyl}-amide] are 13.4 nM, 76 nM and 268 nM.
On the same counts, the results for `CC(C)Oc1ccccc1N1CCN([C@H]2CC[C@@H](NS(=O)(=O)Cc3ccccc3)CC2)CC1` [Cpd 57, N-cis-{4-[4-(2-Isopropoxy-phenyl)-piperazin-1-yl]-cyclohexyl}-C-phenyl-methanesulfonamide] are 1.2 nM, 3.6 nM and 82 nM.
Regarding `COc1ccc(F)cc1S(=O)(=O)N[C@H]1CC[C@H](N2CCN(c3ccccc3OC(C)C)CC2)CC1` [Cpd 43, 5-Fluoro-N-trans-{4-[4-(2-isopropoxy-phenyl)-piperazin-1-yl]-cyclohexyl}-2-methoxy-benzenesulfonamide], the Ki in experiment [1] is 11 nM; in experiment [2], 66 nM; in experiment [3], 714 nM.
On the same counts, the results for `COc1ccc(Cl)cc1S(=O)(=O)N[C@H]1CC[C@@H](N2CCN(c3ccc(F)cc3OC(C)C)CC2)CC1` [Cpd 73, 5-Chloro-N-cis-{4-[4-(4-fluoro-2-isopropoxy-phenyl)-piperazin-1-yl]-cyclohexyl}-2-methoxy-benzenesulfonamide] are 598 nM, 134 nM and 81 nM.
Turning to `CC(C)Oc1ccccc1N1CCN([C@H]2CC[C@@H](NS(=O)(=O)c3cnc(Cl)c(Br)c3)CC2)CC1` [Cpd 61, 5-Bromo-6-chloro-pyridine-3-sulfonic acid N-cis-{4-[4-(2-isopropoxy-phenyl)-piperazin-1-yl]-cyclohexyl}-amide], the inhibition constant (Ki) came out at 14.4 nM in experiment [1], 0.14 nM in experiment [2] and 125 nM in experiment [3].
On the same counts, the results for `CC(C)Oc1ccccc1N1CCN([C@H]2CC[C@@H](NS(=O)(=O)c3cc(Cl)ccc3F)CC2)CC1` [Cpd 12, 5-Chloro-2-fluoro-N-cis-{4-[4-(2-isopropoxy-phenyl)-piperazin-1-yl]-cyclohexyl}-benzenesulfonamide] are 3.8 nM, 0.4 nM and 66 nM.
On the same counts, the results for `COc1ccc(C)cc1S(=O)(=O)N[C@H]1CC[C@H](N2CCN(c3ccccc3OC(C)C)CC2)CC1` [Cpd 32, N-trans-{4-[4-(2-Isopropoxy-phenyl)-piperazin-1-yl]-cyclohexyl}-2-methoxy-5-methyl-benzenesulfonamide] are 0.9 nM, 31 nM and 218 nM.
For `CC(C)Oc1ccccc1N1CCN([C@H]2CC[C@@H](NS(=O)(=O)c3cccnc3)CC2)CC1` [Cpd 59, Pyridine-3-sulfonic acid N-cis-{4-[4-(2-isopropoxy-phenyl)-piperazin-1-yl]-cyclohexyl}-amide], the inhibition constant Ki was 5 nM in experiment [1], 46 nM in experiment [2] and 400 nM in experiment [3].
With `COc1ccc(Cl)cc1S(=O)(=O)N[C@H]1CC[C@H](N2CCN(c3ccccc3OC(C)C)CC2)CC1` [Cpd 31, 5-Chloro-N-trans-{4-[4-(2-isopropoxy-phenyl)-piperazin-1-yl]-cyclohexyl}-2-methoxy-benzenesulfonamide], the Ki in experiment [1] amounted to 3.8 nM; in experiment [3], 250 nM.
On to `COc1ccc(Cl)cc1S(=O)(=O)N[C@H]1CC[C@@H](N2CCN(c3ccccc3OC(C)C)CC2)CC1` [Cpd 3, 5-Chloro-N-cis-{4-[4-(2-isopropoxy-phenyl)-piperazin-1-yl]-cyclohexyl}-2-methoxy-benzenesulfonamide], for which the Ki is 2.5 nM in experiment [1] and 47.6 nM in experiment [3].
